Laboratory results: ChEMBL document CHEMBL5674871, “EZH2 is required for mouse oocyte meiotic maturation by interacting with and stabilizing spindle assembly checkpoint protein BubRI” (Nucleic Acids Res, 2016)
Calls of active or inactive are those of the source. The calls are words filed in the database; no cut-off is given here.

How the values were obtained:
Oocyte [1] = test: Effect on EZH2 protein expression in ICR mouse oocyte at 5 uM for 14 hrs by Western blot analysis; type: functional, cell-based
[2] = target: Histone-lysine N-methyltransferase EZH2 (Mus musculus) (UniProt Q61188); test: Inhibition of EZH2 in ICR mouse oocyte assessed as EED protein level at 5 uM by Western blot analysis; type: cell-based
[3] = target: Histone-lysine N-methyltransferase EZH2 (Mus musculus) (UniProt Q61188); test: Inhibition of EZH2 in ICR mouse oocyte assessed as SUZ12 protein level at 5 uM by Western blot analysis; type: cell-based
Oocyte [4] = test: Effect on ICR mouse oocyte meiotic maturation assessed as PB1 extrusions at 5 uM by immunofluorescence analysis; type: functional, cell-based
[5] = target: Histone-lysine N-methyltransferase EZH2 (Mus musculus) (UniProt Q61188); test: Inhibition of EZH2 in ICR mouse oocyte assessed as decrease in H3K27 trimethylation level at 5 uM by Immunofluorescence analysis; type: cell-based
[6] = target: Histone-lysine N-methyltransferase EZH2 (Mus musculus) (UniProt Q61188); test: Inhibition of EZH2 in ICR mouse oocyte assessed as effect on H3 level at 5 uM by Immunofluorescence analysis; type: cell-based
[7] = target: Histone-lysine N-methyltransferase EZH2 (Mus musculus) (UniProt Q61188); test: Inhibition of EZH2 methyltransferase activity in ICR mouse oocyte assessed as decrease in H3K9me2 level at 5 uM by Immunofluorescence analysis; type: cell-based
Oocyte [8] = test: Effect on EZH2 protein expression in ICR mouse oocyte at 1 uM for 14 hrs by Western blot analysis; type: functional, cell-based
[9] = target: Histone-lysine N-methyltransferase EZH2 (Mus musculus) (UniProt Q61188); test: Inhibition of EZH2 in ICR mouse oocyte assessed as EED protein level at 1 uM by Western blot analysis; type: cell-based
[10] = target: Histone-lysine N-methyltransferase EZH2 (Mus musculus) (UniProt Q61188); test: Inhibition of EZH2 in ICR mouse oocyte assessed as SUZ12 protein level at 1 uM by Western blot analysis; type: cell-based
[11] = target: Histone-lysine N-methyltransferase EZH2 (Mus musculus) (UniProt Q61188); test: Inhibition of EZH2 methyltransferase activity in ICR mouse oocyte assessed as decrease in H3K27 trimethylation level at 1 uM by Immunofluorescence analysis; type: cell-based
[12] = target: Histone-lysine N-methyltransferase EZH2 (Mus musculus) (UniProt Q61188); test: Inhibition of EZH2 in ICR mouse oocyte assessed as effect on H3 level at 1 uM by Immunofluorescence analysis; type: cell-based
[13] = target: Histone-lysine N-methyltransferase EZH2 (Mus musculus) (UniProt Q61188); test: Inhibition of EZH2 methyltransferase activity in ICR mouse oocyte assessed as effect on H3K9me2 level at 1 uM by Immunofluorescence analysis; type: cell-based
Oocyte [14] = test: Effect on ICR mouse oocyte meiotic maturation assessed as PB1 extrusions at 1 uM by immunofluorescence analysis; type: functional, cell-based
Oocyte [15] = test: Effect on ICR mouse oocyte meiotic maturation assessed as abnormal polar bodies extrusions at 1 uM after 14 hrs by immunofluorescence analysis; type: functional, cell-based

Histone-lysine N-methyltransferase EZH2 (Mus musculus), sequence (Q61188 whole entry): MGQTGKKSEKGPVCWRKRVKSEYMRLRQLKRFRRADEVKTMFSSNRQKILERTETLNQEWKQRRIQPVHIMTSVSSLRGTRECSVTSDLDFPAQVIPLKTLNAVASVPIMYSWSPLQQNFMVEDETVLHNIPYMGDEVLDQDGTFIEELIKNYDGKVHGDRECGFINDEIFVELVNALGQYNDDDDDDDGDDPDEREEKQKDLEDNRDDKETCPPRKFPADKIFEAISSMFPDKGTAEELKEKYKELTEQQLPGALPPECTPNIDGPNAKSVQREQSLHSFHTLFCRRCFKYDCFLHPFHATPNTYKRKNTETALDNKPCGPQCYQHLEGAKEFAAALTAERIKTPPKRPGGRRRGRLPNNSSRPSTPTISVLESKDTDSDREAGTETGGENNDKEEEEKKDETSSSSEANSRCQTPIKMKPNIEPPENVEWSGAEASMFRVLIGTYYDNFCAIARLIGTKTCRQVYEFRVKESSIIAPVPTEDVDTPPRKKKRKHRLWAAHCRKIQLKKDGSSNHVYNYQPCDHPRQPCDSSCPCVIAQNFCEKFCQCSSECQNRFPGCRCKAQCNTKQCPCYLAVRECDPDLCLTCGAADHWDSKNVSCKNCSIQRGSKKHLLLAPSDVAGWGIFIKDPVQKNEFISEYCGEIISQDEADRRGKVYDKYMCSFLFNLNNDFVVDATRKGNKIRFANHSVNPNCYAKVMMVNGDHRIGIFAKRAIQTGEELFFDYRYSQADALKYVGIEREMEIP

inhibition [2]	inhibition [3]	inhibition [5]	inhibition [6]	inhibition [7]	inhibition [9]	inhibition [10]	inhibition [11]	inhibition [12]	inhibition [13]	Structure (SMILES)	Activity (Oocyte [1])	Activity (Oocyte [4])	Activity (Oocyte [8])	Activity (Oocyte [14])	Activity (Oocyte [15])
inactive	inactive	Active	inactive	Active	–	–	–	–	–	Nc1nccc2c1ncn2[C@@H]1C=C(CO)[C@@H](O)[C@H]1O	inactive	inactive	–	–	–
–	–	–	–	–	inactive	inactive	Active	inactive	inactive	CCCc1cc(C)[nH]c(=O)c1CNC(=O)c1cc(-c2ccnc(N3CCN(C)CC3)c2)cc2c1cnn2C(C)C	–	–	inactive	inactive	Active
